Positions count from the first letter of the chain named.
Key:
nanoFAST [1] = biological target: T1, nanoFAST (Halorhodospira halophila, UniProt P16113, Q41K/E46Q/C69G/S72T/A84S/Y94W/T95A/F96I/D97P/Y98T/Q99S/M100R/T101G/M109L/S117R); experiment: spectrofluorometric titration, plate reader; format: binding; conditions: PBS pH 7.4, 25 °C, 0.10 µM protein; non-covalent fluorogen
T1 construct: gene pyp; FAST (engineered PYP) lacking the first 27 residues, 98 aa; C-terminal tag of three glycines and six histidines; E. coli BL21(DE3), Ni purification
T1 sequence (P16113 28-125 Q41K/E46Q/C69G/S72T/A84S/Y94W/T95A/F96I/D97P/Y98T/Q99S/M100R/T101G/M109L/S117R): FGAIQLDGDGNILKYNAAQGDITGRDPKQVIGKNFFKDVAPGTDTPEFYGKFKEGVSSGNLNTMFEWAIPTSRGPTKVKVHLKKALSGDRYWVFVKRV
Source text: spectrofluorometric titration, plate reader on nanoFAST

nanoFAST [2] = biological target: T2, nanoFAST (Halorhodospira halophila, UniProt P16113, C69G/Y94W/T95M/F96I/D97P/Y98T/Q99S/M100R/T101G); experiment: fluorescence enhancement screen, plate reader; format: binding; conditions: PBS pH 7.4, 10 µM fluorogen, 1 µM protein
T2 construct: gene pyp; FAST (engineered PYP) lacking the first 27 residues, 98 aa; C-terminal tag of three glycines and six histidines; E. coli BL21(DE3), Ni purification
T2 sequence (P16113 28-125 C69G/Y94W/T95M/F96I/D97P/Y98T/Q99S/M100R/T101G): T1 sequence (P16113 28-125 Q41K/E46Q/C69G/S72T/A84S/Y94W/T95A/F96I/D97P/Y98T/Q99S/M100R/T101G/M109L/S117R) with K14Q, Q19E, T45S, S57A, A68M, L82M, R90S

SMILES	Kd (nanoFAST [1])	fluorescence enhancement screen, plate reader (nanoFAST [2])
Cc1cc(/C=C2\SC(=S)NC2=O)c(C)cc1O [HBR-2,5-DM]	0.5 ± 0.16 µM	
COc1cc(/C=C2\SC(=S)NC2=O)c(OC)cc1O [HBR-DOM2, 2,5-dimethoxy-4-hydroxy-arylidene-rhodanine]	0.13 ± 0.01 µM	significant decrease in fluorescence enhancement with the previously proposed fluorogen of the nanoFAST protein
COc1cc(/C=C2\SC(=S)NC2=O)cc(OC)c1O [HBR-DOM]	1.69 ± 0.32 µM	

Source: paper PMC10931682, “A Combination of Library Screening and Rational Mutagenesis Expands the Available Color Palette of the Smallest Fluorogen-Activating Protein Tag nanoFAST” (International Journal of Molecular Sciences, 2024)
